# Experimental data reported in patent US7291347B2, “Succinate salt of O-desmethyl-venlafaxine” (Wyeth, priority 2001, dated 2007).
# Where two headings read alike, the source gives them in different places.
# Key:
# [1] = Physical stability of the crystalline form; format: physicochemical
# [2] = Aqueous solubility (UV spectrophotometry); format: physicochemical; conditions: water, thermodynamic from solid
# Method: The aqueous solubility (reported above) of Form I of ODV succinate was determined according to the following procedure. Materials • Spectrophotometer—Capable of isolating a bandwidth of 2 nm or less at the wavelength of maximum absorbance, and of measuring absorbances in the 0.0 to 1.0 range with a precision of 0.01. A Cary Model 219 spectrophotometer or equivalent is suitable. • Cells—Silica, 1 cm. • Filters—0.45 micron Nylon filters which are chemical resistant or equivalent • Bottles—Glass screw top bottles having a 15 mL or greater capacity. • Shaker—A lateral shaker, wrist shaker, or a vibrator which will not generate heat is suitable. A. For Non UV Absorbing Solvents • 1. To a bottle weigh an amount of sample equivalent to approximately 1½ times the solubility. • 2. […] Agitate the bottles at ambient room temperature for at least 16 hours. • 4. Obtain a clear filtrate layer by either centrifugation of filtration being careful to avoid evaporation. • 5. Quantitatively transfer the solution to a volumetric flask and dilute to volume with water. • 6. Blank the instrument for water. • 7. Make quantitative dilutions to arrive at a suitable concentration for measurement. […] Quantitatively transfer to a volumetric flask with the same solvent used in preparing the standard solution. • 6. Make dilutions as necessary to obtain a concentration suitable for quantitative measurement. […]
# [3] = In situ rat intestinal perfusion (site-specific absorption); format: in vivo; conditions: for Peff Meloprolol: 20 μg/mL
# Excerpt: The rat intestine perfusion technique is a direct way to measure the regional absorption properties of a test compound in the gastrointestinal tract. Rat intestinal permeability coefficient (Peff) can be used to predict human in vivo oral absorption of passively absorbed compounds. Fagerholm, M. Johansson, and […], “Comparison between permeability coefficients in rat and human jejunum”, Pharm. […] Meanwhile, some other characteristics such as formulable Maximum Absorbable Dose (MAD), FDA Biopharmaceutical Classification, etc. can also be estimated. […] Rats used in this study were Charles River CD males, ranging in weight from approximately 300-350 grams. Metoprolol (a well-absorbed and passively transported compound) was used as a standard and tested simultaneously along with the ODV compounds. […] All chemicals were of analytical grade. After each experiment, all the analytic assays were performed promptly. For isotope determinations, 0.5 mL of perfusate sample containing ^14C PEG-4000 and ^3H-mannitol was mixed with 5 mL of scintillation cocktail. Radioactivity was counted in a liquid scintillation counter (Wallac 1409). Glucose concentration was determined by the glucose oxidase method (Biochemistry Analyzer). Metoprolol and the ODV compounds were analyzed by HPLC-UV/Vis (HP-1100 with a diode-array detector), using a YMC AQ 120 μ, 5 μ, 150×4.6 mm column and step gradient mobile phase containing water/0.1% TFA and acetonitrile. The ODV compounds and metoroplol were detected at 226 and 272 nm UV wavelength, respectively. Blank perfusate was assayed to evaluate the interference at these chromatographic conditions. The perfusions were performed in three intestinal sections of anesthetized rats: duodenum-jejunum, ileum, and colon. The lengths of the segments were approximately 10-12 cm for small intestine segments and 5-6 cm for colon segments. An inflow cannula was inserted at the proximal end and an outflow cannula was inserted at the distal end. Perfusate was pumped through the segment at 0.19 mL/min, and collected at 20, 40, 55, 70, 85 and 100 minutes. […] The disappearance rates of ODV compound, metoprolol, and glucose were determined from each collection interval by comparing to the initial compound solution remaining in the syringe at the end of the 100 minutes. This is to correct for any losses due to binding to the syringe or tubing. Meanwhile, drug concentration in perfusate samples were corrected for water influx/efflux, which was computed, based on ^14C-PEG-4000 concentration changes. […] Values below this range would indicate tissue damage that allows passage of PEG-4000 outside of the perfused segment, while values above this range would indicate significant water movement out of the segment. Water movement across the gut wall was determined by calculation of net water fluid: Net Water Flux (NWF)=[(1-[…] where PEGout and PEGin are the amount of radioactivity (dpm) of ^14C-PEG-4000 in inlet and outlet sides of the perfused intestinal segment, respectively; Q is the flow rate of perfusate; and L is the length of perfused segment (cm). The presence of the ODV compound in the perfusate was determined by HPLC. The amount of drug present at each time point was corrected for water movement across the wall of the intestine: Cout,[…]) where Cout is the concentration of drug in outlet perfusate; Cout,corr is the concentration of drug in outlet perfusate corrected for water moving in or out of the segment, as determined by the recovery of ^14C-PEG-4000. Effective intestinal permcability, Peff (cm/sec), was determined by the following equation: […] Cin is the concentration of drug in inlet perfusate; 2 μrL is the inner surface area of the perfused segment, with r assumed to be 0.18 cm in the rat (see G. Amidon, […]. Crison. “A theoretical basis for a biopharmaceutic drug classification: The correlation of in vitro drug product dissolution and in vivo bioavailability.” Pharm. Res. 12, 1995, 413-420) and L the length of the perfused segment (cm). […]
# [4] = test system: Norepinephrine reuptake; conditions: in vitro; read-out: Inhibition of amine reuptake (IC50), Norepinephrine; cited from earlier work
# [5] = test system: Reserpine-Induce Hypothermia; conditions: i.p.; cited from earlier work
# [6] = test system: Dopamine reuptake; conditions: in vitro; read-out: Inhibition of amine reuptake (IC50), Dopamine; cited from earlier work
# [7] = test system: Cholinergic; conditions: at 1 uM; cited from earlier work
# [8] = test system: Adrenergic α; conditions: at 1 uM; cited from earlier work
# [9] = test system: Serotonin reuptake; conditions: in vitro; read-out: Inhibition of amine reuptake (IC50), Serotonin; cited from earlier work
# [10] = test system: Opiate; conditions: at 1 uM; cited from earlier work
# [11] = Stability in perfusion buffer and jejunal fluids; format: in vitro ADME, rat; conditions: for stability in blank perfusion buffer and jejunal fluids: pH 6.8, 37° C., up to 6 hours; for relative percentage remaining of HPLC peak area: 37° C.
# Method: The stability of ODV succinate or fumarate in the solutions of blank perfusion buffer (Pβ), and jejunal fluids (perfusion buffer collected by washing the isolated jejunal segment, pH=6.8) was determined at 37° C. for up to 6 hours.
# [12] = Bioavailability of O-desmethyl-venlafaxine in beagle dogs; format: in vivo; conditions: male, dog, plasma, free ODV levels, mean (% CV); for bioavailability: read-out: Absolute Bioavailability (%)
# Method: Prior to administration, the oral solution (25 mg/mL) was diluted to a concentration of 7.5 mg/mL with water. […] Six male beagle dogs with body weights ranging between 10.2 and 16.0 kg were used in this study. The dogs were housed and given free access to water and food. The six dogs were dosed in a 4 period study. In Period 1, the dogs received 1 mL of the intravenous solution. In Period 2, the dogs received 10 mL of the oral solution. In Period 3, the dogs received the tablet. In Period 4, the dogs received the capsule. There was a one week wash out period between the first two treatment periods and a one month wash out period between treatment periods 2 and 3. Between periods 3 and 4, there was a one week wash out period. For periods 1 and 2, all dogs were fasted overnight with free access to water and fed after the four-hour bleeding. […] Plasma was separated in a refrigerated centrifuge and stored at -70° C. Plasma samples were then assayed. Plasma O-desmethyl-venlafaxine concentrations were determined by the HPLC method using mass spectrometric detection described in Hicks, […]., Russel, […] high-performance liquid chromatographic method for the simultaneous determination of venlafaxine and O-desmethylvenlafaxine in biological fluids”, Ther. Drug Monit. 16:100-107 (1994), which is hereby incorporated by reference. […] O-desmethyl-venlafaxine-glucuronide levels were determined by subtracting the O-desmethyl-venlafaxine (separate extraction procedure without the use of β-glucuronidase and analyzed by HPLC-MS) concentrations from the total O-desmethyl-venlafaxine concentrations. Noncompartmental pharmacokinetic parameters were calculated from the individual dog plasma O-desmethyl-venlafaxine and O-desmethyl-venlafaxine-glucuronide concentration-time profiles. Area under the plasma concentration-time curves (AUC0-μ) values were calculated by the addition of AUCLast (AUCLast=the linear trapezoid rule from time zero to the last measurable plasma concentration, […]) and […]/lambda. The values for lambda were determined from the long-linear portion of the terminal slope of the plasma O-desmethyl-venlafaxine and O-desmethyl-venlafaxine-glucuronide concentration-time profile after the intravenous dose. […] The peak plasma concentration (Cmax) and the time to reach Cmax (tmax) were noted directly from the plasma concentration-time profiles. Absolute bioavailability was determined by comparing the dose normalized AUC0-μvalues following the intravenous administration. All levels reported as below limit of quantitation (BLQ) were assigned a value of zero for calculation purposes.
# [13] = po, 75 mg, Oral Solution (75 mg)
# [14] = male, Charles River CD, rat, in vivo, 50 μg/mL, pH 6.8
structure (smiles),measurement,setting,value
"CN(C)CC(c1ccc(O)cc1)C1(O)CCCCC1.O=C(O)CCC(=O)O (centres unmarked) [Form I, O-des-methyl-Venlafaxine succinate monohydrate]",physically stable at relative humidity,[1],5-95%
same,physically stable up to (temperature),[1],at least 105 °C
same,solubility,[2]; at 25° C.,32.2 mg/mL
"COCCc1ccc(OCC(O)CNC(C)C)cc1 (centres unmarked) [Meloprolol, Metoprolol, reference compound]",Peff Meloprolol,"[3]; Colon, perfused together with ODV fumarate",11 10^−5 cm/sec
same,Peff Meloprolol,"[3]; Colon, perfused together with ODV succinate",0.583 ± 0.087 10^−5 cm/sec
same,Peff Meloprolol,"[3]; Ileum, perfused together with ODV fumarate",53 10^−5 cm/sec
same,Peff Meloprolol,"[3]; Ileum, perfused together with ODV succinate",3.22 ± 0.07 10^−5 cm/sec
same,Peff Meloprolol,"[3]; Jejunum, perfused together with ODV fumarate",1.78 ± 0.93 10^−5 cm/sec
same,Peff Meloprolol,"[3]; Jejunum, perfused together with ODV succinate",2.50 ± 0.11 10^−5 cm/sec
"CN(C)CC(c1ccc(O)cc1)C1(O)CCCCC1 (centres unmarked) [O-desmethylvenlafaxine, 1-[2-(dimethylamino)-1-(4-phenol)ethyl]-cyclohexanol]",IC50,[4],1.16 µM
same,Reversal of Reserpine-Induce Hypothermia (minimum effect),[5],3 mg/kg
same,IC50,[6],13.4 µM
same,"Affinity for Various Neuroreceptors (% inhibition), Cholinergic",[7],7%
same,"Affinity for Various Neuroreceptors (% inhibition), Adrenergic α",[8],0%
same,IC50,[9],0.18 µM
same,"Affinity for Various Neuroreceptors (% inhibition), Opiate",[10],7%
"CN(C)CC(c1ccc(O)cc1)C1(O)CCCCC1.O=C(O)/C=C/C(=O)O (centres unmarked) [ODV fumarate, reference compound]",stability in blank perfusion buffer and jejunal fluids,[11],no apparent degradation/metabolism
same,MAD predicted,"[3]; rat, in vivo",about 440 mg
same,Peff as percentage of the succinate's Peff values,"[3]; rat, in vivo",27μ40
same,Peff values,"[3]; rat, in vivo",0.24-0.68 ×10^−5 cm/sec
same,in vivo Fa estimated,"[3]; rat, in vivo",33-45%
"CN(C)CC(c1ccc(O)cc1)C1(O)CCCCC1.O=C(O)CCC(=O)O (centres unmarked) [ODV succinate, O-desmethyl-venlafaxine succinate]",relative percentage remaining of HPLC peak area,"[11]; Blank Perfusion Buffer, 0 hours",100.0%
same,relative percentage remaining of HPLC peak area,"[11]; Blank Perfusion Buffer, 2 hours",99.9%
same,relative percentage remaining of HPLC peak area,"[11]; Blank Perfusion Buffer, 3 hours",100.3%
same,relative percentage remaining of HPLC peak area,"[11]; Blank Perfusion Buffer, 6 hours",99.9%
same,relative percentage remaining of HPLC peak area,"[11]; Intestinal fluid (pH 6.8, total protein approx. 0.2 mg/ml), 0 hours",100.0%
same,relative percentage remaining of HPLC peak area,"[11]; Intestinal fluid (pH 6.8, total protein approx. 0.2 mg/ml), 2 hours",99.6%
same,relative percentage remaining of HPLC peak area,"[11]; Intestinal fluid (pH 6.8, total protein approx. 0.2 mg/ml), 3 hours",99.8%
same,relative percentage remaining of HPLC peak area,"[11]; Intestinal fluid (pH 6.8, total protein approx. 0.2 mg/ml), 6 hours",100.1%
same,stability in blank perfusion buffer and jejunal fluids,[11],no apparent degradation/metabolism
same,AUC,"[12]; iv, 25 mg, Intravenous Solution (25 mg)",746 ng·h/mL
same,AUC,"[12]; po, 75 mg, Capsule (75 mg)",904 ng·h/mL
same,Cmax,"[12]; po, 75 mg, Capsule (75 mg)",465 ng/mL
same,Tmax,"[12]; po, 75 mg, Capsule (75 mg)",33 min
same,bioavailability,"[12]; po, 75 mg, Capsule (75 mg)",40%
same,AUC,[12]; [13],835 ng·h/mL
same,Cmax,[12]; [13],450 ng/mL
same,Tmax,[12]; [13],30 min
same,bioavailability,[12]; [13],37%
same,AUC,"[12]; po, 75 mg, Tablet (75 mg)",677 ng·h/mL
same,Cmax,"[12]; po, 75 mg, Tablet (75 mg)",115 ng/mL
same,Tmax,"[12]; po, 75 mg, Tablet (75 mg)",175 min
same,bioavailability,"[12]; po, 75 mg, Tablet (75 mg)",31%
same,Peff as percentage of metoprolol's Peff value,[3]; [14],about 10%
same,Peff's ratio of duodenum-jejunum vs. ileum vs. colon,[3]; [14],1.00:1.90:0.07
same,human in vivo Fa predicted,"[3]; rat, in vivo, 50 μg/mL, pH 6.8",60-77%
same,solubility,[2]; general statement,> 30 mg/mL
